According to the supplement of paper PMC10307832:

Tests used:
Assay in all cases: relative viability (nuclei count vs DMSO), 5 days (fraction); higher = more cells survive
SW 900 = test system: SW 900
Outline: (§1)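 The day after seeding in 1536-well plates, lung cancer cell lines were treated by pin tool with a single drug, or with a fixed anchor-drug dose together with five library-drug doses (not always all listed) in √10 steps. After 5 days, a combined fix-and-stain solution (final 0.05% Triton X-100, 1% formaldehyde, 1 ug/ml Hoechst) was added. Nuclei counted on 4× images gave relative viability as treated counts over vehicle counts, reported as the median of duplicate plates.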

NCI-H1915 = test system: NCI-H1915
Outline: as §1

NCI-H1975 = test system: NCI-H1975
Outline: as §1

LC-2-ad = test system: LC-2-ad
Outline: as §1

CAL-12T = test system: CAL-12T
Outline: as §1

NCI-H1792 = test system: NCI-H1792
Outline: as §1

NCI-H1395 = test system: NCI-H1395
Outline: as §1

NCI-H2405 = test system: NCI-H2405
Outline: as §1

A-427 = test system: A-427
Outline: as §1

HCC-44 = test system: HCC-44
Outline: as §1

HCC-15 = test system: HCC-15
Outline: as §1

LCLC-97TM1 = test system: LCLC-97TM1
Outline: as §1

NCI-H2342 = test system: NCI-H2342
Outline: as §1

NCI-H1734 = test system: NCI-H1734
Outline: as §1

NCI-H2347 = test system: NCI-H2347
Outline: as §1

NCI-H838 = test system: NCI-H838
Outline: as §1

EPLC-272H = test system: EPLC-272H
Outline: as §1

Question: Which relative viability (SW 900; first compound 0.002 µM) does the source give for `CCNC(=O)c1noc(-c2cc(C(C)C)c(O)cc2O)c1-c1ccc(CN2CCOCC2)cc1` [Luminespib] + NC(=O)Nc1cc(-c2cccc(F)c2)sc1C(=O)N[C@H]1CCCNC1 [AZD7762] (partner 0.2 µM) here?
Answer: Its relative viability is 0.667.

Question: What about the relative viability (SW 900; first compound 0.006325 µM) of the same molecule?
Answer: The relative viability was 0.752.

Question: What about the relative viability (SW 900; first compound 0.02 µM) of the same molecule?
Answer: Its relative viability is 0.396.

Question: What about the relative viability (SW 900; first compound 0.06325 µM) of the same molecule?
Answer: Its relative viability is 0.129.

Question: And the relative viability (SW 900; first compound 0.2 µM)?
Answer: Its relative viability is 0.13.

Question: What about the relative viability (NCI-H1915; first compound 0.002 µM) of the same molecule?
Answer: Its relative viability is 0.662.

Question: What about the relative viability (NCI-H1915; first compound 0.006325 µM) of the same molecule?
Answer: The relative viability was 0.674.

Question: And the relative viability (NCI-H1915; first compound 0.02 µM)?
Answer: The relative viability was 0.627.

Question: What about the relative viability (NCI-H1915; first compound 0.06325 µM) of the same molecule?
Answer: Its relative viability is 0.473.

Question: What about the relative viability (NCI-H1915; first compound 0.2 µM) of the same molecule?
Answer: The relative viability was 0.0604.

Question: What about the relative viability (NCI-H1975; first compound 0.002 µM) of the same molecule?
Answer: Its relative viability is 0.686.

Question: What about the relative viability (NCI-H1975; first compound 0.006325 µM) of the same molecule?
Answer: Its relative viability is 0.735.

Question: And the relative viability (NCI-H1975; first compound 0.02 µM)?
Answer: Its relative viability is 0.348.

Question: What about the relative viability (NCI-H1975; first compound 0.06325 µM) of the same molecule?
Answer: Its relative viability is 0.167.

Question: And the relative viability (NCI-H1975; first compound 0.2 µM)?
Answer: The relative viability was 0.165.

Question: And the relative viability (LC-2-ad; first compound 0.002 µM)?
Answer: Its relative viability is 0.802.

Question: What about the relative viability (LC-2-ad; first compound 0.006325 µM) of the same molecule?
Answer: The relative viability was 0.854.

Question: And the relative viability (LC-2-ad; first compound 0.02 µM)?
Answer: The relative viability was 0.833.

Question: And the relative viability (LC-2-ad; first compound 0.06325 µM)?
Answer: Its relative viability is 0.146.

Question: And the relative viability (LC-2-ad; first compound 0.2 µM)?
Answer: Its relative viability is 0.16.

Question: And the relative viability (CAL-12T; first compound 0.002 µM)?
Answer: The relative viability was 0.698.

Question: What about the relative viability (CAL-12T; first compound 0.006325 µM) of the same molecule?
Answer: The relative viability was 0.691.

Question: What about the relative viability (CAL-12T; first compound 0.02 µM) of the same molecule?
Answer: Its relative viability is 0.542.

Question: What about the relative viability (CAL-12T; first compound 0.06325 µM) of the same molecule?
Answer: The relative viability was 0.188.

Question: And the relative viability (CAL-12T; first compound 0.2 µM)?
Answer: The relative viability was 0.182.

Question: And the relative viability (NCI-H1792; first compound 0.002 µM)?
Answer: The relative viability was 0.797.

Question: And the relative viability (NCI-H1792; first compound 0.006325 µM)?
Answer: Its relative viability is 0.519.

Question: What about the relative viability (NCI-H1792; first compound 0.02 µM) of the same molecule?
Answer: Its relative viability is 0.146.

Question: What about the relative viability (NCI-H1792; first compound 0.06325 µM) of the same molecule?
Answer: The relative viability was 0.0335.

Question: What about the relative viability (NCI-H1792; first compound 0.2 µM) of the same molecule?
Answer: Its relative viability is 0.0361.

Question: What about the relative viability (NCI-H1395; first compound 0.002 µM) of the same molecule?
Answer: The relative viability was 0.399.

Question: And the relative viability (NCI-H1395; first compound 0.006325 µM)?
Answer: Its relative viability is 0.372.

Question: And the relative viability (NCI-H1395; first compound 0.02 µM)?
Answer: The relative viability was 0.374.

Question: What about the relative viability (NCI-H1395; first compound 0.06325 µM) of the same molecule?
Answer: The relative viability was 0.343.

Question: What about the relative viability (NCI-H1395; first compound 0.2 µM) of the same molecule?
Answer: The relative viability was 0.384.

Question: And the relative viability (NCI-H2405; first compound 0.002 µM)?
Answer: Its relative viability is 0.865.

Question: And the relative viability (NCI-H2405; first compound 0.02 µM)?
Answer: Its relative viability is 0.711.

Question: What about the relative viability (NCI-H2405; first compound 0.06325 µM) of the same molecule?
Answer: Its relative viability is 0.167.

Question: What about the relative viability (NCI-H2405; first compound 0.2 µM) of the same molecule?
Answer: The relative viability was 0.127.

Question: What about the relative viability (A-427; first compound 0.002 µM) of the same molecule?
Answer: The relative viability was 0.865.

Question: What about the relative viability (A-427; first compound 0.006325 µM) of the same molecule?
Answer: The relative viability was 0.722.

Question: And the relative viability (A-427; first compound 0.02 µM)?
Answer: Its relative viability is 0.557.

Question: What about the relative viability (A-427; first compound 0.06325 µM) of the same molecule?
Answer: The relative viability was 0.258.

Question: And the relative viability (A-427; first compound 0.2 µM)?
Answer: The relative viability was 0.205.

Question: What about the relative viability (HCC-44; first compound 0.002 µM) of the same molecule?
Answer: The relative viability was 1.04.

Question: And the relative viability (HCC-44; first compound 0.006325 µM)?
Answer: Its relative viability is 0.995.

Question: What about the relative viability (HCC-44; first compound 0.02 µM) of the same molecule?
Answer: Its relative viability is 1.15.

Question: And the relative viability (HCC-44; first compound 0.06325 µM)?
Answer: Its relative viability is 1.07.

Question: And the relative viability (HCC-44; first compound 0.2 µM)?
Answer: The relative viability was 0.959.

Question: And the relative viability (HCC-15; first compound 0.002 µM)?
Answer: The relative viability was 1.11.

Question: And the relative viability (HCC-15; first compound 0.006325 µM)?
Answer: The relative viability was 1.11.

Question: What about the relative viability (HCC-15; first compound 0.02 µM) of the same molecule?
Answer: Its relative viability is 1.36.

Question: What about the relative viability (HCC-15; first compound 0.06325 µM) of the same molecule?
Answer: Its relative viability is 1.14.

Question: What about the relative viability (HCC-15; first compound 0.2 µM) of the same molecule?
Answer: Its relative viability is 0.247.

Question: What about the relative viability (LCLC-97TM1; first compound 0.002 µM) of the same molecule?
Answer: Its relative viability is 0.251.

Question: What about the relative viability (LCLC-97TM1; first compound 0.006325 µM) of the same molecule?
Answer: The relative viability was 0.22.

Question: And the relative viability (LCLC-97TM1; first compound 0.02 µM)?
Answer: Its relative viability is 0.111.

Question: What about the relative viability (LCLC-97TM1; first compound 0.06325 µM) of the same molecule?
Answer: The relative viability was 0.167.

Question: And the relative viability (LCLC-97TM1; first compound 0.2 µM)?
Answer: The relative viability was 0.0727.

Question: And the relative viability (NCI-H2342; first compound 0.002 µM)?
Answer: Its relative viability is 0.472.

Question: What about the relative viability (NCI-H2342; first compound 0.006325 µM) of the same molecule?
Answer: Its relative viability is 0.434.

Question: What about the relative viability (NCI-H2342; first compound 0.02 µM) of the same molecule?
Answer: Its relative viability is 0.371.

Question: What about the relative viability (NCI-H2342; first compound 0.06325 µM) of the same molecule?
Answer: Its relative viability is 0.492.

Question: What about the relative viability (NCI-H2342; first compound 0.2 µM) of the same molecule?
Answer: The relative viability was 0.26.

Question: What about the relative viability (NCI-H1734; first compound 0.002 µM) of the same molecule?
Answer: Its relative viability is 0.516.

Question: What about the relative viability (NCI-H1734; first compound 0.006325 µM) of the same molecule?
Answer: Its relative viability is 0.497.

Question: And the relative viability (NCI-H1734; first compound 0.02 µM)?
Answer: Its relative viability is 0.28.

Question: And the relative viability (NCI-H1734; first compound 0.06325 µM)?
Answer: Its relative viability is 0.0991.

Question: And the relative viability (NCI-H1734; first compound 0.2 µM)?
Answer: Its relative viability is 0.124.

Question: And the relative viability (NCI-H2347; first compound 0.002 µM)?
Answer: The relative viability was 0.844.

Question: And the relative viability (NCI-H2347; first compound 0.006325 µM)?
Answer: Its relative viability is 0.719.

Question: And the relative viability (NCI-H2347; first compound 0.02 µM)?
Answer: Its relative viability is 0.614.

Question: What about the relative viability (NCI-H2347; first compound 0.06325 µM) of the same molecule?
Answer: The relative viability was 0.469.

Question: And the relative viability (NCI-H2347; first compound 0.2 µM)?
Answer: Its relative viability is 0.202.

Question: And the relative viability (NCI-H838; first compound 0.002 µM)?
Answer: Its relative viability is 0.994.

Question: And the relative viability (NCI-H838; first compound 0.006325 µM)?
Answer: The relative viability was 0.89.

Question: What about the relative viability (NCI-H838; first compound 0.02 µM) of the same molecule?
Answer: Its relative viability is 0.775.

Question: What about the relative viability (NCI-H838; first compound 0.06325 µM) of the same molecule?
Answer: The relative viability was 0.625.

Question: What about the relative viability (NCI-H838; first compound 0.2 µM) of the same molecule?
Answer: Its relative viability is 0.597.

Question: What about the relative viability (EPLC-272H; first compound 0.002 µM) of the same molecule?
Answer: The relative viability was 0.224.

Question: And the relative viability (EPLC-272H; first compound 0.006325 µM)?
Answer: Its relative viability is 0.389.

Question: What about the relative viability (EPLC-272H; first compound 0.02 µM) of the same molecule?
Answer: Its relative viability is 0.193.

Question: What about the relative viability (EPLC-272H; first compound 0.06325 µM) of the same molecule?
Answer: The relative viability was 0.0934.

Question: What about the relative viability (EPLC-272H; first compound 0.2 µM) of the same molecule?
Answer: The relative viability was 0.127.
